# According to PubChem BioAssay (NCI):
#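 Protocol summary: plate cells (96-well), add compound at 5 concentrations, incubate 48 h, interpolate endpoints linearly. At the TGI there is no net growth.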
# Columns and labels:
# Assay in all cases: NCI tumour cell line growth inhibition, 48 h
# [1] = system: SR leukemia
# [2] = system: A549 NSCLC
# [3] = system: SK-MEL-28 melanoma
# [4] = system: TK-10 renal
# [5] = system: HOP-62 NSCLC
# [6] = system: HL-60(TB) leukemia
# [7] = system: DLD-1 colon
# [8] = system: EKVX NSCLC
# [9] = system: 786-0 renal
# [10] = system: LOX IMVI melanoma
# [11] = system: RPMI-8226 leukemia
# [12] = system: HCC-2998 colon
# [13] = system: OVCAR-8 ovarian
# [14] = system: SK-MEL-5 melanoma
# [15] = system: OVCAR-5 ovarian
# [16] = system: NCI-H460 lung
# [17] = system: KM12 colon
# [18] = system: RXF-631 renal
# [19] = system: HOP-18 NSCLC
# [20] = system: UACC-62 melanoma
# [21] = system: RXF 393 renal
# [22] = system: SNB-75 CNS
# [23] = system: OVCAR-3 ovarian
# [24] = system: NCI-H522 lung
# [25] = system: UO-31 renal
# [26] = system: M14 melanoma
# [27] = system: SN12C renal
# [28] = system: DMS 114 small cell lung
# [29] = system: NCI-H23 lung
# [30] = system: IGROV1 ovarian
# [31] = system: SF-268 CNS
# [32] = system: NCI-H226 lung
# [33] = system: SK-OV-3 ovarian
# [34] = system: XF 498 CNS
# [35] = system: UACC-257 melanoma
# [36] = system: SNB-19 CNS
# [37] = system: HOP-92 NSCLC
# [38] = system: ACHN renal
# [39] = system: KM20L2 colon
# [40] = system: A498 renal
# [41] = system: COLO 205 colon
# [42] = system: HCT-116 colon
# [43] = system: M19-MEL melanoma
# [44] = system: HCT-15 colon
# [45] = system: HT29 colon
# [46] = system: U251 CNS
# [47] = system: MOLT-4 leukemia
# [48] = system: MALME-3M melanoma
# [49] = system: SNB-78 CNS
# [50] = system: LXFL 529 NSCLC
# [51] = system: SF-295 CNS
# [52] = system: CCRF-CEM leukemia
# [53] = system: CAKI-1 renal
# [54] = system: K-562 leukemia
# [55] = system: OVCAR-4 ovarian
# [56] = system: SF-539 CNS
# [57] = system: SK-MEL-2 melanoma
# [58] = system: SW-620 colon
# [59] = system: DMS 273 small cell lung
smiles,measurement,setting,value
COC(=O)C12C3C4C5C3(C#N)C1C5(C(=O)OC)C42C(=O)N(C(C)C)C(C)C (stereo not drawn),TGI,[1],33.3 µM
same,TGI,[2],> 100 µM
same,TGI,[3],> 100 µM
same,TGI,[4],> 100 µM
same,TGI,[5],> 100 µM
same,TGI,[6],> 60 µM
same,TGI,[7],> 70.6 µM
same,TGI,[8],> 100 µM
same,TGI,[9],> 100 µM
same,TGI,[10],> 100 µM
same,TGI,[11],> 69.3 µM
same,TGI,[12],> 100 µM
same,TGI,[13],> 100 µM
same,TGI,[14],> 100 µM
same,TGI,[15],> 100 µM
same,TGI,[16],> 100 µM
same,TGI,[17],> 100 µM
same,TGI,[18],> 100 µM
same,TGI,[19],> 100 µM
same,TGI,[20],> 100 µM
same,TGI,[21],> 100 µM
same,TGI,[22],> 100 µM
same,TGI,[23],> 100 µM
same,TGI,[24],> 53.4 µM
same,TGI,[25],> 100 µM
same,TGI,[26],> 100 µM
same,TGI,[27],> 100 µM
same,TGI,[28],> 100 µM
same,TGI,[29],> 100 µM
same,TGI,[30],> 100 µM
same,TGI,[31],> 100 µM
same,TGI,[32],> 100 µM
same,TGI,[33],> 100 µM
same,TGI,[34],> 100 µM
same,TGI,[35],> 100 µM
same,TGI,[36],> 100 µM
same,TGI,[37],> 100 µM
same,TGI,[38],> 100 µM
same,TGI,[39],> 100 µM
same,TGI,[40],> 100 µM
same,TGI,[41],> 100 µM
same,TGI,[42],> 100 µM
same,TGI,[43],> 100 µM
same,TGI,[44],> 60.4 µM
same,TGI,[45],> 100 µM
same,TGI,[46],> 100 µM
same,TGI,[47],> 100 µM
same,TGI,[48],> 100 µM
same,TGI,[49],> 100 µM
same,TGI,[50],> 100 µM
same,TGI,[51],> 100 µM
same,TGI,[52],> 67.5 µM
same,TGI,[53],> 100 µM
same,TGI,[54],> 73.8 µM
same,TGI,[55],> 100 µM
same,TGI,[56],> 100 µM
same,TGI,[57],> 100 µM
same,TGI,[58],> 65.3 µM
same,TGI,[59],> 59.3 µM
NC(=S)N/N=C(\C(=O)Nc1cccc([N+](=O)[O-])c1)c1nc2ccc([N+](=O)[O-])cc2[nH]c1=O,TGI,[2],> 100 µM
same,TGI,[3],> 100 µM
same,TGI,[4],> 100 µM
same,TGI,[5],> 100 µM
same,TGI,[6],> 100 µM
same,TGI,[7],> 100 µM
same,TGI,[8],> 100 µM
same,TGI,[9],> 100 µM
same,TGI,[10],> 100 µM
same,TGI,[11],> 100 µM
same,TGI,[12],> 100 µM
same,TGI,[13],> 100 µM
same,TGI,[14],> 100 µM
same,TGI,[15],> 100 µM
same,TGI,[16],> 100 µM
same,TGI,[17],> 100 µM
same,TGI,[18],> 100 µM
same,TGI,[19],> 100 µM
same,TGI,[20],> 100 µM
same,TGI,[21],> 100 µM
same,TGI,[22],> 100 µM
same,TGI,[24],53 µM
same,TGI,[25],> 100 µM
same,TGI,[26],> 100 µM
same,TGI,[28],> 100 µM
same,TGI,[29],> 100 µM
same,TGI,[30],> 100 µM
same,TGI,[31],> 100 µM
same,TGI,[32],> 100 µM
same,TGI,[33],> 100 µM
same,TGI,[34],> 100 µM
same,TGI,[35],> 100 µM
same,TGI,[36],> 100 µM
same,TGI,[37],> 100 µM
same,TGI,[38],> 100 µM
same,TGI,[39],> 100 µM
same,TGI,[40],> 100 µM
same,TGI,[41],> 100 µM
same,TGI,[42],> 100 µM
same,TGI,[43],> 100 µM
same,TGI,[44],> 100 µM
same,TGI,[45],> 100 µM
same,TGI,[46],> 100 µM
same,TGI,[47],> 100 µM
same,TGI,[48],> 100 µM
same,TGI,[50],> 100 µM
same,TGI,[51],> 100 µM
same,TGI,[52],> 100 µM
same,TGI,[54],> 100 µM
same,TGI,[55],> 100 µM
same,TGI,[56],> 100 µM
same,TGI,[57],> 100 µM
same,TGI,[58],> 100 µM
same,TGI,[59],> 100 µM
